Measured values: patent US11351178B2, “Selective HDAC6 inhibitors” (ITALFARMACO S.P.A., priority 2017, dated 2022)

Columns and labels:
[1] = tested on: B 697 promyelocytic cell line; assay: Cytotoxicity on 697 cell line (CellTiter 96); assay type: cell-based; settings: 72 hours incubation, read-out: 697 TOXICITY
Summary of the method: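 Cells seeded (2×10^4/well for 697, 5×10^5/well for PBMCs); compounds added after 24 h at 1–10000 nM (697) or 1.5–10000 nM (PBMCs) and incubated 72 h. Viability read by CellTiter 96 Aqueous One tetrazolium assay of mitochondrial function.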

recombinant human HDAC6 = target: T1, recombinant human HDAC6 (Homo sapiens, UniProt Q9UBN7); assay: Enzymatic screening on recombinant human HDAC6; assay type: biochemical; settings: Table 2; read-out: HDAC6 IC50
T1 sequence (Q9UBN7 1-1215): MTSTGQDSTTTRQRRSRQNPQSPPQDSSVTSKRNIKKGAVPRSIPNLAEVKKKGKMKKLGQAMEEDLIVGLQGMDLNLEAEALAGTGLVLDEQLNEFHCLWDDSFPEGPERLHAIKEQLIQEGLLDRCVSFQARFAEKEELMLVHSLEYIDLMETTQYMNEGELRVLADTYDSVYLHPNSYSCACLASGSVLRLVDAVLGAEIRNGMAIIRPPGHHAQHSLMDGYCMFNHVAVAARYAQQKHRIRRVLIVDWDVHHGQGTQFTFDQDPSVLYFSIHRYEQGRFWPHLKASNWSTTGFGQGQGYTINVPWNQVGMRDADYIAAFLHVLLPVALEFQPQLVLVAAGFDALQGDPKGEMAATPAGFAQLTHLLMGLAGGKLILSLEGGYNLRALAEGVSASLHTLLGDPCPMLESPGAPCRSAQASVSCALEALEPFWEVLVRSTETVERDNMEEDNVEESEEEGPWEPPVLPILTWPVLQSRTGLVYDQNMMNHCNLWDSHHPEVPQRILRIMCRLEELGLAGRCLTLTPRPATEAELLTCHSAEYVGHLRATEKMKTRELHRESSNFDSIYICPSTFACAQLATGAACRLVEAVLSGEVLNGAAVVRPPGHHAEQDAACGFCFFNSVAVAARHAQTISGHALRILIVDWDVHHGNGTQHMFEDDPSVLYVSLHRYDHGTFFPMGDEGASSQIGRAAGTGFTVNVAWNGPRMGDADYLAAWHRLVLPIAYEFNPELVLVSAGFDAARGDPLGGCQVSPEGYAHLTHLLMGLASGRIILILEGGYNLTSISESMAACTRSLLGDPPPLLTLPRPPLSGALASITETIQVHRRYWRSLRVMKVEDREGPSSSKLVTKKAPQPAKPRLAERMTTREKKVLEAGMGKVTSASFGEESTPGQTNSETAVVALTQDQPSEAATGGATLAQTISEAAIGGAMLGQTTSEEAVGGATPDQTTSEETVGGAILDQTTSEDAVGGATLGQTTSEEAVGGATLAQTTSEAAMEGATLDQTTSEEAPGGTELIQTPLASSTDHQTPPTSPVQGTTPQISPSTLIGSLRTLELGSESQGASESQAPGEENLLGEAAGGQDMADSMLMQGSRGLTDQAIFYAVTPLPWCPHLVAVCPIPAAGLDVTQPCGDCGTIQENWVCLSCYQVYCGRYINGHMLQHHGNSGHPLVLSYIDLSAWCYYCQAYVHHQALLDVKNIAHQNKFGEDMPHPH
Summary of the method: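 Deacetylase activity of recombinant human isoforms is measured with FLUOR DE LYS, FLUOR DE LYS-Green or trifluoroacetyl-L-lysine substrates, supplied at 2× in 25 mM Tris-HCl, pH 8, 130 mM NaCl, 0.05% Tween-20, 10% glycerol. Both the enzyme-compound preincubation, of isoform-specific length, and the substrate reaction run at 30 °C.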

[2] = Stability in human plasma; assay type: in vitro ADME; settings: after 4 hours, 37° C.
Method: In order to evaluate the stability to circulating enzymes, test compounds were incubated in human and rat plasma at 37° C. in a thermostated oscillating bath. Each test compound was incubated at μM (50 μM when the samples were analysed by UV/HPLC, 1 or 2 μM when the samples were analysed by LC-MS/MS) concentration for 0, 15, 30 min and 1, 2 and 4 hours. The reaction was stopped placing tubes on ice bath and adding acidified acetonitrile. After centrifugation for 10 minutes at 14000 rpm, an aliquot of the supernatant was diluted with water, filtered with 0.45 μm syringe filters and injected in HPLC-UV or in LC-MS/MS. The percentages of amount remaining at the various times of incubation with respect to initial amount were calculated. The half-life in plasma was also calculated.

[3] = Stability to Phase I metabolism in human S9 liver fraction; assay type: in vitro ADME
Method: Test compounds were incubated in rat and human liver S9 fraction at 37° C. up to 90 minutes in order to evaluate their stability to Phase I metabolism by hepatic enzymes. […] The reaction was stopped placing samples on ice bath and adding acidified acetonitrile. After centrifugation (10 minutes at 14000 rpm) an aliquot of the supernatant was diluted water, filtered with 0.45 μm regenerated cellulose syringe filters and injected in HPLC-UV or in LC-MS/MS. The percentages of the amount remaining at the various incubation times with respect to the initial amount were calculated. The intrinsic clearance was also calculated.

Stability in rat plasma = assay type: in vitro ADME; settings: after 4 hours, 37° C.
Summary of the method: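 Compounds incubated at 37° C in rat or human plasma at 50 μM (UV/HPLC) or 1 or 2 μM (LC-MS/MS) for 0–4 h. Reaction stopped with acidified acetonitrile on ice; percent remaining versus initial amount and plasma half-life calculated.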

[4] = Stability to Phase I metabolism in rat S9 liver fraction; assay type: in vitro ADME; settings: after 90 min, 37° C.
Summary of the method: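 Compounds were incubated with rat or human liver S9 fraction at 37 °C for up to 90 min. Reactions were quenched on ice with acidified acetonitrile and analysed by HPLC-UV or LC-MS/MS. Percent remaining versus time zero and intrinsic clearance were calculated.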

IC50 (recombinant human HDAC6) [nM]	residual percentage in human plasma [2] [%]	residual percentage in human S9 fraction ([3]; human, 90 min, pH 7.4) [%]	residual percentage in rat plasma (Stability in rat plasma) [%]	residual percentage in rat S9 fraction [4] [%]	SMILES	IC50 [1] [nM]	residual percentage in human S9 fraction ([3]; human liver S9 fraction, after 90 min, 37° C.) [%]
7	79	84	89	72	Cn1c(Sc2c(F)cc(C(=O)NO)cc2F)nnc1-c1ccc(CN2CCOCC2)o1 [comp. 204, 3,5-difluoro-4-[[4-methyl-5-[5-(morpholinomethyl)-2-furyl]-1,2,4-triazol-3-yl]sulfanyl]benzenecarbohydroxamic acid]	15400	–
5	80	95	89	71	CN1CCN(Cc2ccc(-c3nnc(Sc4c(F)cc(C(=O)NO)cc4F)n3C)o2)CC1 [comp. 205, 3,5-difluoro-4-[[4-methyl-5-[5-[(4-methylpiperazin-1-yl)methyl]-2-furyl]-1,2,4-triazol-3-yl]sulfanyl]benzenecarbohydroxamic acid]	15400	–
7	92	97	88	50	CN(C)Cc1ccc(-c2nnc(Sc3c(F)cc(C(=O)NO)cc3F)n2C)o1 [comp. 206, 4-[[5-[5-[(dimethylamino)methyl]-2-furyl]-4-methyl-1,2,4-triazol-3-yl]sulfanyl]-3,5-difluoro-benzenecarbohydroxamic acid]	–	–
8	76	59	86	67	CCN(CC)Cc1ccc(-c2nnc(Sc3c(F)cc(C(=O)NO)cc3F)n2C)o1 [comp. 211, 4-[[5-[5-(diethylaminomethyl)-2-furyl]-4-methyl-1,2,4-triazol-3-yl]sulfanyl]-3,5-difluoro-benzenecarbohydroxamic acid]	–	–
–	90	82	57	65	O=C(NO)c1ccc(Cn2nnnc2-c2ccccc2)cc1 [comp. 215, 4-[(5-phenyltetrazol-1-yl)methyl]benzenecarbohydroxamic acid]	340	–
–	91	84	89	62	O=C(NO)c1ccc(Cc2nnc(-c3ccccc3)[nH]2)cc1 [comp. 216, 4-[(5-phenyl-4H-1,2,4-triazol-3-yl)methyl]benzenecarbohydroxamic acid]	288	–
55	92	54	101	17	CN(c1ccc(-c2nnc(Sc3c(F)cc(C(=O)NO)cc3F)s2)cc1)S(C)(=O)=O [compound 187, 3,5-difluoro-4-[[5-[4-[methyl(methylsulfonyl)amino]phenyl]-1,3,4-thiadiazol-2-yl]sulfanyl]benzenecarbohydroxamic acid]	–	–
6	100	71	81	63	O=C(NO)c1ccc(Cc2noc(-c3ccnc(N4CCOCC4)c3)n2)cc1 [compound 193, 4-[[5-(2-morpholino-4-pyridyl)-1,2,4-oxadiazol-3-yl]methyl]benzenecarbohydroxamic acid]	–	–
11	99	29	89	3	O=C(NO)c1cc(F)c(Cc2noc(-c3ccccc3)n2)c(F)c1 [compound 194, 3,5-difluoro-N-hydroxy-4-((5-phenyl-1,2,4-oxadiazol-3-yl)methyl)benzamide]	–	–
53	89	26	99	23	O=C(NO)c1cc(F)c(Sc2nnc(-c3cncc(Br)c3)s2)c(F)c1 [compound 196, 4-[[5-(5-bromo-3-pyridyl)-1,3,4-thiadiazol-2-yl]sulfanyl]-3,5-difluoro-benzenecarbohydroxamic acid]	–	–
10	96	86	82	62	O=C(NO)c1cc(F)c(Cc2nnc(-c3cncc(N4CCOCC4)c3)s2)c(F)c1 [compound 197, 3,5-difluoro-4-[[5-(5-morpholino-3-pyridyl)-1,3,4-thiadiazol-2-yl]methyl]benzenecarbohydroxamic acid]	–	–
5	95	51	63	6	O=C(NO)c1cc(F)c(Cc2nnc(-c3ccccc3)s2)c(F)c1 [compound 198, 3,5-difluoro-N-hydroxy-4-((5-phenyl-1,3,4-thiadiazol-2-yl)methyl)benzamide]	–	–
8	102	37	96	32	COCCN(CCOC)c1cncc(-c2nc(Cc3c(F)cc(C(=O)NO)cc3F)no2)c1 [compound 200, 4-[[5-[5-[bis(2-methoxyethyl)amino]-3-pyridyl]-1,2,4-oxadiazol-3-yl]methyl]-3,5-difluoro-benzenecarbohydroxamic acid]	–	–

SMILES	IC50 (recombinant human HDAC6) [nM]	residual percentage in human plasma [2] [%]	residual percentage in human S9 fraction ([3]; human, 90 min, pH 7.4) [%]	residual percentage in rat plasma (Stability in rat plasma) [%]	residual percentage in rat S9 fraction [4] [%]	IC50 [1] [nM]	residual percentage in human S9 fraction ([3]; human liver S9 fraction, after 90 min, 37° C.) [%]
O=C(NO)c1cc(F)c(Cc2noc(-c3cncc(N4CC5(COC5)C4)c3)n2)c(F)c1 [compound 201, 3,5-difluoro-4-[[5-[5-(2-oxa-6-azaspiro[3.3]heptan-6-yl)-3-pyridyl]-1,2,4-oxadiazol-3-yl]methyl]benzenecarbohydroxamic acid]	16	88	–	95	34	–	75
